In brackets after ≈: the same amount, converted by molar mass.
Columns and labels:
Anas platyrhynchos = details: oral, mortality
Daphnia magna = details: chronic/long-term; duration: 21 days; reproduction
Colinus virginianus = details: acute, oral, mortality
Canidae = details: oral, Dog Other, organ weight
Apis mellifera = details: acute; duration: 48 hours; oral; unspecified; mortality
Coturnix japonica = details: reproduction developmental
Typhlodromus pyri = details: acute; duration: 7 days; mortality
Pimephales promelas = details: chronic/long-term; duration: 35 days; growth
Oncorhynchus mykiss = details: acute; duration: 96 hours; mortality

Clc1ccc(C2(Cn3cncn3)CC(Br)CO2)c(Cl)c1 (stereo not drawn) [Bromuconazole]
LD50 (Anas platyrhynchos; acute, unspecified): > 2150 mg/kg-day
LC50 (Anas platyrhynchos; short-term, feed): > 684 mg/kg-day
LD50 (Rattus norvegicus; acute, F, mortality): 328 mg/kg-day
NOAEL (Rattus norvegicus; chronic, duration: 2 years, oral, diet, histopathology: nonneoplastic): 0.88 mg/kg-day
NOAEL (Rattus norvegicus; developmental, development): 10 mg/kg-day
NOEC (Rattus norvegicus; reproduction developmental, reproduction): 1.3 mg/kg-day
NOEC (Daphnia magna): 0.02 mg/L
LC50 (Colinus virginianus; diet): > 778 mg/kg-day
LD50 (Colinus virginianus): > 2150 mg/kg-day
NOAEL (Canidae; chronic, duration: 1 years): 2.5 mg/kg-day
NOAEL (Canidae; subchronic, duration: 90 days): 2.5 mg/kg-day
LD50 (Apis mellifera): > 100 µg/piece
NOEC (Coturnix japonica): 26.5 mg/kg-day
LEL (Typhlodromus pyri): 260 g/ha
LC50 (Tagia sp.; acute, duration: 14 days, mortality): > 1000 mg/kg
NOEC (Tagia sp.; chronic/long-term, duration: 56 days): 37.2 mg/kg
NOEC (Pimephales promelas): 0.065 mg/L
LC50 (Oncorhynchus mykiss): 1.7 mg/L (≈ 4.51 µM)
